Assay results: patent US10231453B2, “5-substituted imidazole derivatives” (BAYER CROPSCIENCE AKTIENGESELLSCHAFT, priority 2015, dated 2019)
Where two headings read alike, the source gives them in different places.

What was measured:
[1] = tested on: Fusarium culmorum; assay: In vivo preventive Fusarium culmorum test (wheat), Example L; conditions: 120 h, 500 ppm of active ingredient, preventive spray, evaluated 5 days after inoculation, read-out: efficacy
Method: After the spray coating has been dried, the plants are slightly injured by using a sandblast and afterwards they are sprayed with a conidia suspension of Fusarium culmorum.
The test is evaluated 5 days after the inoculation.

[2] = tested on: Puccinia recondita; assay: In vivo preventive test on Puccinia recondita (brown rust on wheat), Examples C and R3; conditions: Puccinia recondita, 264 h, preventive spray, evaluated 11 days after inoculation
[3] = tested on: Leptosphaeria nodorum; assay: In vivo preventive Leptosphaeria nodorum test (wheat), Example N; conditions: Parastagonospora nodorum, 192 h, 500 ppm of active ingredient, preventive spray, evaluated 8 days after inoculation, read-out: efficacy
Excerpt: After the spray coating has been dried, the plants are sprayed with a spore suspension of Leptosphaeria nodorum.

[4] = tested on: Septoria tritici; assay: In vivo preventive test on Septoria tritici (leaf spot on wheat), Examples E, Q3 and R5; conditions: Zymoseptoria tritici, 576 h, preventive spray, evaluated 24 days after inoculation
[5] = tested on: Fusarium nivale (var. majus); assay: In vivo preventive Fusarium nivale (var. majus) test (wheat), Example O; conditions: Microdochium nivale, 120 h, 500 ppm of active ingredient, preventive spray, evaluated 5 days after inoculation, read-out: efficacy
Excerpt: After the spray coating has been dried, the plants are slightly injured by using a sandblast and afterwards they are sprayed with a conidia suspension of Fusarium nivale (var. majus).

[6] = tested on: Uromyces appendiculatus; assay: In vivo preventive test on Uromyces appendiculatus (bean rust), Examples G and R7; conditions: 264 h, preventive spray, evaluated 11 days after inoculation
[7] = tested on: Sphaerotheca fuliginea; assay: In vivo preventive test on Sphaerotheca fuliginea (powdery mildew on cucurbits), Examples F and R6; conditions: Podosphaera fuliginea, 360 h, preventive spray, evaluated 15 days after inoculation
[8] = tested on: Pyricularia oryzae; assay: whole plant or invertebrate; type: in vivo; conditions: 192 h, read-out: efficacy
[9] = Measurement of LogP values by HPLC on reversed phase columns (EEC directive 79/831 Annex V.A8); type: physicochemical; conditions: acidic range, Table 1
Method: Measurement of Log P values was performed as outlined above.

[10] = tested on: Blumeria graminis fsp. hordei; assay: In vivo preventive Blumeria test (barley), Example K; conditions: 168 h, 500 ppm of active ingredient, preventive spray, evaluated 7 days after inoculation, read-out: efficacy
Excerpt: After the spray coating has been dried, the plants are dusted with spores of Blumeria graminis fsp. hordei.

[11] = tested on: Fusarium graminearum; assay: whole plant or invertebrate; type: in vivo; conditions: in Hordeum vulgare, 120 h, read-out: efficacy
[12] = tested on: Pyrenophora teres; assay: In vivo preventive test on Pyrenophora teres (net blotch on barley), Examples D, Q2 and R4; conditions: Pyrenophora teres, 336 h; for pest or weed control at 100 ppm: Example R4, rate of application 100 ppm
[13] = tested on: Botrytis cinerea; assay: In vivo preventive test on Botrytis cinerea (grey mould) on gherkin, Examples B, Q1 and R2; conditions: Botrytis cinerea; for pest or weed control at 100 ppm: Example R2, rate of application 100 ppm
[14] = tested on: Alternaria brassicae; assay: In vivo preventive test on Alternaria brassicae (leaf spot on radish), Examples A and R1; conditions: Alternaria brassicae, 144 h
[15] = tested on: Venturia inaequalis; assay: In vivo preventive Venturia test (apples), Example J; conditions: 240 h, read-out: efficacy
Method: After the spray coating has dried on, the plants are inoculated with an aqueous conidia suspension of the causal agent of apple scab (Venturia inaequalis) and then remain for 1 day in an incubation cabinet at approximately 20° C. and a relative atmospheric humidity of 100%.
The plants are then placed in a greenhouse at approximately 21° C. and a relative atmospheric humidity of approximately 90%.
The test is evaluated 10 days after the inoculation.

[16] = tested on: Phakopsora pachyrhizi; assay: In vivo preventive Phakopsora test (soybeans), Example I; conditions: 168 h, 100 ppm of active ingredient, preventive spray, evaluated 7 days after inoculation, read-out: efficacy
[17] = tested on: Alternaria solani; assay: In vivo preventive Alternaria test (tomatoes), Example H; conditions: 72 h, 100 ppm of active ingredient, preventive spray, evaluated 3 days after inoculation, read-out: efficacy
[18] = 500 ppm of active ingredient, wheat, read-out: efficacy
[19] = 500 ppm of active ingredient, bean, read-out: efficacy
[20] = 500 ppm of active ingredient, gherkin, read-out: efficacy
[21] = method [a]: LC-UV, 0.1% formic acid in water and acetonitrile as eluent
[22] = 500 ppm of active ingredient, preventive spray, evaluated 14 days after inoculation, read-out: efficacy
[23] = 500 ppm of active ingredient, preventive spray, evaluated 4 to 5 days after inoculation, read-out: efficacy
[24] = 500 ppm of active ingredient, preventive spray, evaluated 6 days after inoculation, read-out: efficacy
[25] = Example R3, wheat, read-out: Efficacy in %
[26] = Example R3, wheat, 500 ppm, read-out: Efficacy in %
[27] = Example R5, wheat, read-out: Efficacy in %
[28] = Example R5, wheat, 500 ppm, read-out: Efficacy in %
[29] = Example R7, bean, read-out: Efficacy in %
[30] = Example R7, bean, 500 ppm, read-out: Efficacy in %
[31] = Example R4, rate of application 500 ppm, read-out: Efficacy in %
[32] = Example R2, rate of application 500 ppm, read-out: Efficacy in %

Row | SMILES | pest or weed control at 500 ppm [1] [%] | pest or weed control at 500 ppm [2, 18] [%] | pest or weed control at 500 ppm [3] [%] | pest or weed control at 500 ppm [4, 18] [%] | pest or weed control at 500 ppm [5] [%] | pest or weed control at 500 ppm [6, 19] [%] | pest or weed control at 500 ppm [7, 20] [%] | pest or weed control at 500 ppm [8] [%] | chromatographic logP [9, 21] | pest or weed control at 500 ppm [10] [%] | pest or weed control at 500 ppm [11] [%] | pest or weed control at 500 ppm [12, 22] [%] | pest or weed control at 500 ppm [13, 23] [%] | pest or weed control at 500 ppm [14, 24] [%] | pest or weed control at 100 ppm [2, 25] [%] | pest or weed control at 500 ppm [2, 26] [%] | pest or weed control at 100 ppm [15] [%] | pest or weed control at 100 ppm [16] [%] | pest or weed control at 100 ppm [4, 27] [%] | pest or weed control at 100 ppm [17] [%] | further results
1 | OC(Cc1ccccc1Cl)(Cn1cncc1Cl)C1(Cl)CC1 (stereo not drawn) [Example I-02] | 70 to 79 | 80 to 89 | 90 to 100 | 90 to 100 | 90 to 100 | 90 to 100 | 90 to 100 | 70 to 79 | 2.32 | 90 to 100 | 80 to 89 | 90 to 100 | 90 to 100 | 90 to 100 |  |  |  |  |  |  | chromatographic logP ([9]; method [c]: LC-UV, 0.1% phosphoric acid and acetonitrile as eluent): 2
2 | N#Cc1cncn1CC(O)(Cc1ccccc1Cl)C1(Cl)CC1 (stereo not drawn) [Example I-06, 1-[2-(1-chlorocyclopropyl)-3-(2-chlorophenyl)-2-hydroxypropyl]-1H-imidazole-5-carbonitrile] | 90 to 100 | 90 to 100 | 90 to 100 | 90 to 100 | 90 to 100 | 90 to 100 | 90 to 100 | 90 to 100 | 2.92 | 90 to 100 | 90 to 100 | 90 to 100 | 90 to 100 |  | 89 | 94 | 80 to 89 | 90 to 100 | 98 | 90 to 100 | pest or weed control at 500 ppm [4, 28]: 100%; pest or weed control at 100 ppm [6, 29]: 100%; pest or weed control at 500 ppm [6, 30]: 100%; pest or weed control at 100 ppm ([12]; read-out: Efficacy in %): 86%; pest or weed control at 500 ppm [12, 31]: 93%; pest or weed control at 100 ppm ([13]; read-out: Efficacy in %): 80%; pest or weed control at 500 ppm [13, 32]: 97%
3 | N#Cc1cncn1CC(O)(Cc1cccnc1Cl)C1(Cl)CC1 (stereo not drawn) [Example I-26] | 90 to 100 | 90 to 100 | 70 to 79 | 90 to 100 | 90 to 100 | 90 to 100 | 90 to 100 | 80 to 89 | 2.01 | 90 to 100 |  |  |  |  |  |  | 90 to 100 | 70 to 79 |  | 80 to 89 | 
4 | N#Cc1cncn1CC(O)(Cc1ccccc1F)C1(Cl)CC1 (stereo not drawn) [Example I-34, 1-[2-(1-chlorocyclopropyl)-3-(2-fluorophenyl)-2-hydroxypropyl]-1H-imidazole-5-carbonitrile] | 90 to 100 | 90 to 100 | 90 to 100 | 90 to 100 | 90 to 100 | 90 to 100 | 90 to 100 |  | 2.64 | 90 to 100 | 90 to 100 | 90 to 100 | 90 to 100 | 90 to 100 | 94 | 100 | 90 to 100 | 90 to 100 | 100 | 90 to 100 | pest or weed control at 500 ppm [4, 28]: 100%; pest or weed control at 100 ppm [6, 29]: 100%; pest or weed control at 500 ppm [6, 30]: 100%; pest or weed control at 100 ppm ([7]; Example R6, gherkin, 100 ppm, read-out: Efficacy in %): 100%; pest or weed control at 500 ppm ([7]; Example R6, gherkin, 500 ppm, read-out: Efficacy in %): 100%; pest or weed control at 100 ppm ([12]; read-out: Efficacy in %): 83%; pest or weed control at 500 ppm [12, 31]: 98%; pest or weed control at 100 ppm ([13]; read-out: Efficacy in %): 94%; pest or weed control at 500 ppm [13, 32]: 100%; pest or weed control at 100 ppm ([14]; Example R1, rate of application 100 ppm, read-out: Efficacy in %): 58%; pest or weed control at 500 ppm ([14]; Example R1, rate of application 500 ppm, read-out: Efficacy in %): 92%
